Assay results reported in patent US11814364B2, “Pyridine N-oxide derivatives useful as factor XIa inhibitors” (Janssen Pharmaceutica NV, priority 2021, dated 2023).

Target: human plasma kallikrein (Homo sapiens, UniProt P03952)
Assay: Kallikrein inhibition FLINT assay with quenched AMC peptide substrate Z-Gly-Pro-Arg-AMC (end point EP or kinetic KIN reads)
Type: biochemical
Settings: kinetic reads at 5 min intervals over 30 min; read-out: Kallikrein (KIN) IC50
Procedure, shortened: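 Enzyme and compound were preincubated 30 min before adding 50 μM AMC substrate in pH 7.5 Tris/NaCl/CaCl2/BSA/CHAPS buffer. AMC release was read at 30 min endpoint or every 5 min.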

Sequence of human plasma kallikrein (P03952 391-638 limits assumed): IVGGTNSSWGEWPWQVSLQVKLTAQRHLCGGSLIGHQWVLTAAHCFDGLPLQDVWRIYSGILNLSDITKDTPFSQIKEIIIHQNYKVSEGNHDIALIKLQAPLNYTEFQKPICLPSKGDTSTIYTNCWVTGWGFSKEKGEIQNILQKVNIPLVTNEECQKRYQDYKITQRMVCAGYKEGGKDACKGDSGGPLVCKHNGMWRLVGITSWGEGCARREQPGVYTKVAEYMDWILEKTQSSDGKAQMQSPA
Sequence of human plasma kallikrein (P03952 20-390 partner limits assumed): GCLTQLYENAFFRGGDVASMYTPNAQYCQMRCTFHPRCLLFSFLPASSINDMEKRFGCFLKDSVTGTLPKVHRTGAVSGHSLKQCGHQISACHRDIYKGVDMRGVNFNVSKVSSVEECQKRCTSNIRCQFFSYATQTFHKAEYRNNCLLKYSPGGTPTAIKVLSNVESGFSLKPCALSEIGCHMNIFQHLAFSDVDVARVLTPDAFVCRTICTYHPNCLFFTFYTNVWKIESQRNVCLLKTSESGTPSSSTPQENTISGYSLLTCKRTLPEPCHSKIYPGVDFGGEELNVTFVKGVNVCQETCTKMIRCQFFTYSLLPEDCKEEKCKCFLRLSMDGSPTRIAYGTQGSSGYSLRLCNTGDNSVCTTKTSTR

SMILES	IC50
O=C(c1cnn(CC(c2ccc(-c3c(-n4cnnn4)ccc(Cl)c3F)c[n+]2[O-])n2cc(-c3cc[n+]([O-])cc3)cn2)c1)N1CCCCC1 (centres unmarked) [Example P292]	51.3 nM
COCC[C@H](c1ccc(-c2c(-n3cc(Cl)nn3)ccc(Cl)c2F)c[n+]1[O-])n1cc(-c2c(F)cnn2C(F)F)cn1 [Example P626]	322 nM
O=C(O)c1ccc(-c2cnn(C(CC3CC3)c3ccc(-c4c(C(F)F)ccc(Cl)c4F)c[n+]3[O-])c2)cc1 (single isomer, unassigned) [Example Q13]	97.1 nM
[O-][n+]1cc(-c2c(-n3cnnn3)ccc(Cl)c2F)ccc1[C@@H](CC1CC1)n1cc(-c2nnn(C(F)F)c2Cl)cn1 [Example P604]	290 nM
Cn1cnc(Cl)c1-c1cnn([C@H](CC2CC2)c2ccc(-c3c(-n4cnnn4)ccc(Cl)c3F)c[n+]2[O-])c1 [Example P848]	185 nM
CC(C)C(=O)N(C)CC(c1ccc(-c2c(-n3cnnn3)ccc(Cl)c2F)c[n+]1[O-])n1cc(-c2ccnc(F)c2)cn1 (centres unmarked) [Example P418]	55.6 nM
[O-][n+]1ccc(-c2cnn(C(Cc3ccc(F)cc3)c3ccc(-c4c(-n5cnnn5)ccc(Cl)c4F)c[n+]3[O-])c2)cc1 (single isomer, unassigned) [Example P238]	0.7 nM
Nc1ccc(-c2cnn(C(CCOC(F)F)c3ccc(-c4c(-n5cnnn5)ccc(Cl)c4F)c[n+]3[O-])c2)c(F)n1 (single isomer, unassigned) [Example P297]	2.2 nM
O=C(O)c1ccc(-c2cnn(C(Cc3ccn(C(F)F)n3)c3ccc(-c4c(C(F)F)ccc(Cl)c4F)c[n+]3[O-])c2)cc1 (single isomer, unassigned) [Example Q71]	4.9 nM
Cn1ncc(C[C@@H](c2ccc(-c3c(-n4cc(Cl)nn4)ccc(Cl)c3F)c[n+]2[O-])n2cc(-c3ccnc(C(F)(F)F)c3)cn2)n1 [Example P715]	830 nM
CCC(c1ccc(-c2c(-n3cnnn3)ccc(Cl)c2F)c[n+]1[O-])n1cc(-c2ccc(NC(=O)OC)cc2)cn1 (single isomer, unassigned) [Example P155]	86.1 nM
COCC(=O)N(C)CC(c1ccc(-c2c(-n3cnnn3)ccc(Cl)c2F)c[n+]1[O-])n1cc(-c2ccnc(C(F)(F)F)c2)cn1 (centres unmarked) [Example P427]	66.8 nM
NC(=O)c1ccc(-c2cnn(C(Cc3ncon3)c3ccc(-c4c(-n5cc(C(F)(F)F)nn5)ccc(Cl)c4F)c[n+]3[O-])c2)cc1F (centres unmarked) [Example P915]	20.2 nM
Nc1ccc(-c2cnn(C(Cn3cc(F)cn3)c3ccc(-c4c(C(F)F)ccc(Cl)c4F)c[n+]3[O-])c2)c(F)n1 (single isomer, unassigned) [Example Q26]	420 nM
Nc1ccc(-c2cnn(C(Cn3cccn3)c3ccc(-c4c(-n5cnnn5)ccc(Cl)c4F)c[n+]3[O-])c2)c(F)n1 (centres unmarked) [Example P256]	3 nM
CN(CC(c1ccc(-c2c(-n3cnnn3)ccc(Cl)c2F)c[n+]1[O-])n1cc(-c2ccncc2)cn1)C(=O)c1ccccc1 (centres unmarked) [Example P296]	36.4 nM
COC(=O)N(C)CC(c1ccc(-c2c(-n3cnnn3)ccc(Cl)c2F)c[n+]1[O-])n1cc(-c2ccc(N)nc2F)cn1 (centres unmarked) [Example P482]	22.9 nM
[O-][n+]1cc(-c2c(-n3cnnn3)ccc(Cl)c2F)ccc1[C@@H](CC1CC1)n1cc(-c2ncnn2C(F)F)cn1 [Example P762]	249 nM
[O-][n+]1cc(-c2c(-n3cnnn3)ccc(Cl)c2F)ccc1C(C(O)c1ccccc1)n1cc(-c2ccnn2C(F)F)cn1 (single isomer, unassigned) [Example P713]	29.9 nM
N#Cc1cc(-c2cnn(C(CN3CCCC3=O)c3ccc(-c4c(-n5cnnn5)ccc(Cl)c4F)c[n+]3[O-])c2)ccn1 (centres unmarked) [Example P461]	32.5 nM
